{
  "source": "paper PMC9532535",
  "about": "(Acta Pharmaceutica Sinica. B, 2022)",
  "key": {"[1]": {"assay": "Measurement of critical aggregation concentration", "type": "physicochemical", "details": "in water, 37 °C overnight, ACQ probe P2 fluorescence"}, "Caco-2 monolayer": {"system": "Caco-2 monolayer", "assay": "Transport across the Caco-2 monolayer", "type": "in vitro ADME", "details": "Caco-2 monolayer without Raji"}, "[2]": {"details": "ref [37]; cited from earlier work"}},
  "data": [
    {"compound": "CCCCCCCCCCCCCCCCCC(=O)[O-].C[N+](C)(C)CCO", "note": "[Choline stearate]", "values": [
      {"measurement": "CAC (critical aggregation concentration)", "setting": "[1]", "value": "0.37 ± 0.02", "unit": "mmol/L"}
    ]},
    {"compound": "CC(=O)O[C@H]1C(=O)[C@@]2(C)[C@H]([C@H](OC(=O)c3ccccc3)[C@]3(O)C[C@H](OC(=O)[C@H](O)[C@@H](NC(=O)c4ccccc4)c4ccccc4)C(C)=C1C3(C)C)[C@]1(OC(C)=O)CO[C@@H]1C[C@@H]2O", "note": "[PTX, paclitaxel]", "values": [
      {"measurement": "transport of PTX in the Caco-2 monolayer", "setting": "Caco-2 monolayer", "value": "negligible"},
      {"measurement": "plasma protein binding", "setting": "[2]", "value": "greater than 90%"}
    ]},
    {"compound": "Choline oleate", "values": [
      {"measurement": "CAC (critical aggregation concentration)", "setting": "[1]", "value": "0.19 ± 0.01", "unit": "mmol/L"}
    ]}
  ]
}
